This note sets out measurements from US12029776B2, “Composition for treating cancer and use and medicament thereof” (NEWISH TECHNOLOGY (BEIJING) CO., LTD., priority 2020, dated 2024).

Where a name gives a salt, the structure may show the parent alone.

One test deals with transplanted tumor of the liver cancer cell line Hep3B. Put plainly: Efficacy on the transplanted tumor in nude mice. The following applies: FIG. 10.
Experimental: Hep3B cells were cultured with 10% serum DMEM medium and were digested and counted after they grew into the logarithmic phase. […] Therefore, the present invention adopted a dose of 5*10e6 cells per nude mouse, and administration was performed in groups after the tumors grew into an average volume of 100 mm^3 in about 21 days. The administration was divided into a solvent control group, an apatinib 50 mg/kg oral administration group, a sotagliflozin 20 mg/kg intraperitoneal injection group, and a combination group of simultaneous apatinib 50 mg/kg oral administration and sotagliflozin 20 mg/kg intraperitoneal injection. The administration cycle was once every other day, and the tumor volumes were measured every Tuesday and Friday and calculated according to the formula V=a*b^2/2 (a is the measured long diameter of the tumor, b is the measured short diameter of the tumor). A graph was mapped using Graphpad prism 5 and the measurement results were analyzed statistically.
In the case of `CCOc1ccc(Cc2cc([C@@H]3O[C@H](SC)[C@@H](O)[C@H](O)[C@H]3O)ccc2Cl)cc1` [sotagliflozin], the “sensitisation of the transplanted tumor to the growth inhibitory effect of apatinib” value is given as “sensitive to the growth inhibitory effect of apatinib”.

A further test deals with liver cancer cell line. Put plainly: VEGFR2 inhibitors in combination with the SGLT1 inhibitor on the liver cancer cell line (Example 2). It counts as cell-based. The following applies: combined with SGLT1 inhibitor sotagliflozin, FIG. 11-1 to 11-30. On the procedure:
Dimethyl sulfoxide (DMSO) can dissolve formazan in cells, and its light absorption value measured at 570 nm wavelength with an enzyme-linked immunodetector can indirectly reflect the number of living cells. Cell growth was determined by 3-(4,5-dimethylthiazol-2-yl)-2,5-diphenyltetrazolium bromide (MTT) assay in a 96-well plate. Specifically, the cells were digested and counted, and then resuspended into a system containing 5000 cells per 200 μL of culture medium and seeded in each well of a 96-well plate. The next day, the medium was replaced with a medium containing different concentrations of sotagliflozin, apatinib, lenvatinib, and the composition of them. After 48 or 72 hours of incubation with the drugs, 20 μL of MTT reagent was added to each well and incubated for 2 hours. After discarding the medium, the formazan deposit in the cells was dissolved in 100 μL of DMSO. The absorbance was measured at 570 nm by a microplate reader. Samples were used in quadruplicate in each group.
Turning to `Cc1cc(Nc2cc(N3CCN(C)CC3)nc(/C=C/c3ccccc3)n2)n[nH]1.O=C(O)C(O)C(O)C(=O)O` [ENMD-2076 L-(+)-tartaric acid], the “tumor suppressive effect in combination with the SGLT1 inhibitor compared with single agent” value is “better tumor suppressive effect than as a single agent”.

Turning to `Cc1cc(Nc2cc(N3CCN(C)CC3)nc(/C=C/c3ccccc3)n2)n[nH]1` [ENMD-2076], the “tumor suppressive effect in combination with the SGLT1 inhibitor compared with single agent” value is on record as “better tumor suppressive effect than as a single agent”. Same read-out and setting: the same measure for `COc1cc2c(Oc3ccc4[nH]c(C)cc4c3F)ccnc2cc1OCC1(N)CC1` [anlotinib (AL3818) dihydrochloride]: “better tumor suppressive effect than as a single agent”; for `Cc1cc2c(F)c(Oc3ncnn4cc(OC[C@@H](C)OC(=O)[C@H](C)N)c(C)c34)ccc2[nH]1` [brivanib alaninate]: “better tumor suppressive effect than as a single agent”.

Take `Cc1cc2c(F)c(Oc3ncnn4cc(OC[C@@H](C)O)c(C)c34)ccc2[nH]1` [brivanib]: the “tumor suppressive effect in combination with the SGLT1 inhibitor compared with single agent” value is reported as “better tumor suppressive effect than as a single agent”. On the same count and under the same terms, the same measure for `COc1cc2nccc(Oc3ccc(NC(=O)C4(C(=O)Nc5ccc(F)cc5)CC4)cc3)c2cc1OC` [cabozantinib malate]: “better tumor suppressive effect than as a single agent”. Same read-out and setting: the same measure for `COc1cc2c(Oc3ccc4[nH]c(C)cc4c3F)ncnc2cc1OCCCN1CCCC1` [cediranib]: “better tumor suppressive effect than as a single agent”. On the same count and under the same terms, the same measure for `CNC(=O)c1c(C)oc2cc(Oc3ncnc4cc(OC)c(OC)cc34)ccc12` [fruquintinib]: “better tumor suppressive effect than as a single agent”; for `COc1cc2nccc(Oc3ccc(NC(=O)NC4CC4)c(Cl)c3)c2cc1C(N)=O` [lenvatinib mesylate]: “better tumor suppressive effect than as a single agent”. Take `CCS(=O)(=O)O.COC(=O)c1ccc2c(c1)NC(=O)/C2=C(\Nc1ccc(N(C)C(=O)CN2CCN(C)CC2)cc1)c1ccccc1` [nintedanib ethanesulfonate salt]: the “tumor suppressive effect in combination with the SGLT1 inhibitor compared with single agent” value is listed as “better tumor suppressive effect than as a single agent”.

With `COC(=O)c1ccc2c(c1)NC(=O)/C2=C(\Nc1ccc(N(C)C(=O)CN2CCN(C)CC2)cc1)c1ccccc1` [nintedanib], the “tumor suppressive effect in combination with the SGLT1 inhibitor compared with single agent” value is listed as “better tumor suppressive effect than as a single agent”. Still for that read-out and setting: the same measure for `CNC(=O)c1cc(Oc2ccc(NC(=O)Nc3ccc(Cl)c(C(F)(F)F)c3)c(F)c2)ccn1` [regorafenib]: “better tumor suppressive effect than as a single agent”; for `COCCNCc1ccc(-c2cc3nccc(Oc4ccc(NC(=O)C5(C(=O)Nc6ccc(F)cc6)CC5)cc4F)c3s2)nc1` [sitravatinib]: “better tumor suppressive effect than as a single agent”.

Regarding `O=C1c2c(O)cc(O)cc2O[C@H](c2ccc(O)c(O)c2)[C@H]1O` [taxifolin], the “tumor suppressive effect in combination with the SGLT1 inhibitor compared with single agent” value is recorded as “better tumor suppressive effect than as a single agent”.

`CNC(=O)c1cc(COc2nnc(Nc3ccc(Cl)cc3)c3ccoc23)ccn1` [telatinib]: the “tumor suppressive effect in combination with the SGLT1 inhibitor compared with single agent” value is listed as “better tumor suppressive effect than as a single agent”. The same measure, in the same setting: the same measure for cediranib maleate: “better tumor suppressive effect than as a single agent”. Same read-out and setting: the same measure for vitamin E: “better tumor suppressive effect than as a single agent”.
